Series [1] addresses T1, angiotensin conversion enzyme (Oryctolagus cuniculus, UniProt P12822).
T1 construct: with the enzyme isolated from rabbit lungs; from tissue; host or cells: rabbit lungs
T1 sequence (P12822 34-1310): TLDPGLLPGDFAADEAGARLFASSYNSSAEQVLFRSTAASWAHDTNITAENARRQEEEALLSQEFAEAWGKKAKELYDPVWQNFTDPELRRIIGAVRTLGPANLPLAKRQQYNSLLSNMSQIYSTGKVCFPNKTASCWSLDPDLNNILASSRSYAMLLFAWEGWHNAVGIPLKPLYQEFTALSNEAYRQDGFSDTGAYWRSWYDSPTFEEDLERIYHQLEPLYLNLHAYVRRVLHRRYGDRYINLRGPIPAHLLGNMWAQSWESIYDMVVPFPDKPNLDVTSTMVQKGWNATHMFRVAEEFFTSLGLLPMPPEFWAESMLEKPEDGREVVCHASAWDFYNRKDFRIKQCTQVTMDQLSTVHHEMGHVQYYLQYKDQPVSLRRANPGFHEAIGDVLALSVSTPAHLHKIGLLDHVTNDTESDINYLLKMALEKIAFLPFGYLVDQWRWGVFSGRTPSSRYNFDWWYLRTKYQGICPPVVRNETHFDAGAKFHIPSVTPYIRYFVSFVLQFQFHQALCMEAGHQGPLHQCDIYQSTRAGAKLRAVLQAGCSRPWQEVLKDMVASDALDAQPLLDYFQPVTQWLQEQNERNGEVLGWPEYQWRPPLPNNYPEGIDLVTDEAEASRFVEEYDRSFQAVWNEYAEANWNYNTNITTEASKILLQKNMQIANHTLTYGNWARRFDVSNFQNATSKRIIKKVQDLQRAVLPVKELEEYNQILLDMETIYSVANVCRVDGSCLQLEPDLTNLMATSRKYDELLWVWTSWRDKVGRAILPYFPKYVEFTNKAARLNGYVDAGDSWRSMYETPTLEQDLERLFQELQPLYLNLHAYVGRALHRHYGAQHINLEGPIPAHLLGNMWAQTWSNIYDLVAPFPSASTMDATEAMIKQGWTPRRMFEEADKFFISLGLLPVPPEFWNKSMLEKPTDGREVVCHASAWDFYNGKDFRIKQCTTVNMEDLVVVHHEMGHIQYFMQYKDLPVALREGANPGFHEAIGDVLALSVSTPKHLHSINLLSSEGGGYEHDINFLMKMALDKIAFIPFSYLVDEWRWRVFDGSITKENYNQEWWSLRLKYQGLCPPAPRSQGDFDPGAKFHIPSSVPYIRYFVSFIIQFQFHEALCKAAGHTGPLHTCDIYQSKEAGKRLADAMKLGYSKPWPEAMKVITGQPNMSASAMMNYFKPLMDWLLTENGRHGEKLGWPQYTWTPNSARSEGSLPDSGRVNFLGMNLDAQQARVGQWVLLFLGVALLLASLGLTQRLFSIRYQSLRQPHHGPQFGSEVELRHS
The series can be described thus: Inhibition of angiotensin conversion enzyme in vitro (method of Cushman and Cheung). Type of series: biochemical. As to conditions: enzyme isolated from rabbit lungs; read-out: I50. As to the method:
The inhibition of angiotensin conversion enzyme by the compounds corresponding to general formula (I) is measured, in vitro, with the enzyme isolated from rabbit lungs according to the method by Cushman and Cheung [Biochem.-Pharmacol., 20, 1637, (1971)].
In Table 1 the values of I50 (μM) obtained by using the retroinverted analogues and natural not-modified peptide, which is used as the comparison term, are reported.

In series [2] the test system is angiotensin conversion enzyme and peptidases. Description: Stability: resistance of peptides to angiotensin conversion enzyme and to peptidases. The following applies: after 3 hours of incubation. Type of series: in vitro ADME. The text has this:
The stability of peptides of formula (B) and (C) has been verified by determining the resistance of said peptides to the angiotensin conversion enzyme and to peptidases.

The subject of series [3] is angiotensin conversion enzyme. As to conditions: 15 minutes of preincubation with the enzyme; cited from earlier work.

Where no end group is shown, it is not given here. [ ]: non-standard residue; d: D form. pGlu = O=C1CC[C@@H](C(=O)O)N1

For the compound `C[C@@H](C(=O)N[C@H](Cc1ccccc1)C(=O)N[C@H](CCCCN)C(=O)N[C@@H]1CCC(=O)N1)C(=O)N1C[C@@H](Sc2ccccc2)C[C@H]1C(=O)O` [B, gGlp--Dlys--DPhe--(S)m Ala--Pro--(4-allo--SPh)--OH], the IC50 in series [1] came to 7.5 µM. In addition, the “resistance towards enzymatic degradation” value in series [2] is recorded as “resistant”.
With “Glp-Lys-Trp-Ala-Pro ([pGlu]KWAP) [BPP5a]”, the “loss of inhibiting activity” value in series [3] is given as “complete loss”.

Source of the values: patent US4728725A, “Retro-inverted peptides analogues of Bradykinin Potentiator BPP5a” (Enichem, S.p.A., priority 1984, dated 1988).
